# Measurements published in the supplement of paper PMC11952222, “Development and comparison of single FLT3-inhibitors to dual FLT3/TAF1-inhibitors as an anti-leukemic approach” (PLOS One, 2025).
# ± gives the standard deviation of the averaged measurements.
# Tested on: KASUMI-1
# Test: cell viability (CellTiter-Glo luminescence) relative to DMSO (fraction of DMSO control); higher = higher signal (more live cells for CellTiter-Glo)
# Details: 3 µM; 72 h
# Method: (§1)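 MOLM13, DU4475, HDQP1 and IGROV1 cells were treated with compounds in 384-well format for 72 h (KASUMI-1 in 96-well plates, RPMI + 10% FCS, 72 h). Viability was read with CellTiter-Glo and cell death with CellTox Green, both normalised to DMSO vehicle. Doses ranged 0.001-30 µM.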
row,Compound,cell viability
1,CC(C)(C)c1ccc(C(=O)Nc2cc(-c3ccccc3)n[nH]2)cc1 [3i-1247],0.5738 ± 0.0019
2,Cn1cc(-c2cc(NC(=O)c3ccc(C(C)(C)C)cc3)n[nH]2)ccc1=O [3i-1248],1.11 ± 0.061

# Same assay, conditions: 9.48683 µM; 72 h
row,Compound,cell viability
1,Cc1cc(-c2cc(NC(=O)c3ccc(C(C)(C)C)cc3)[nH]n2)ccn1 [3i-1246],0.239 ± 0.0055
2,CC(C)(C)c1ccc(C(=O)Nc2cc(-c3ccccc3)n[nH]2)cc1 [3i-1247],0.1148 ± 0.00061
3,Cn1cc(-c2cc(NC(=O)c3ccc(C(C)(C)C)cc3)n[nH]2)ccc1=O [3i-1248],0.455 ± 0.036

# Same assay, conditions: 30 µM; 72 h
row,Compound,cell viability
1,Cc1cc(-c2cc(NC(=O)c3ccc(C(C)(C)C)cc3)[nH]n2)ccn1 [3i-1246],0.00978 ± 0.0007
2,CC(C)(C)c1ccc(C(=O)Nc2cc(-c3ccccc3)n[nH]2)cc1 [3i-1247],0.0202 ± 0.0019
3,Cn1cc(-c2cc(NC(=O)c3ccc(C(C)(C)C)cc3)n[nH]2)ccc1=O [3i-1248],0.00672 ± 0.00072

# Tested on: MOLM13
# Test: as above
# Details: 0.01 µM; 72 h
# Method: as §1
row,Compound,cell viability
1,CC(C)(C)c1cc(NC(=O)Nc2ccc(-c3cn4c(n3)sc3cc(OCCN5CCOCC5)ccc34)cc2)no1 [quizartinib],0.00342 ± 0.00075
2,C=CCCn1cc(-c2cc(C(=O)N3CCOCC3)cc3c2ncn3C)c2cc[nH]c2c1=O [GNE-371],1.01 ± 0.041
3,Cc1cc(-c2cc(NC(=O)c3ccc(C(C)(C)C)cc3)[nH]n2)ccn1 [3i-1246],0.959 ± 0.052
4,CC(C)(C)c1ccc(C(=O)Nc2cc(-c3ccccc3)n[nH]2)cc1 [3i-1247],0.858 ± 0.073
5,Cn1cc(-c2cc(NC(=O)c3ccc(C(C)(C)C)cc3)n[nH]2)ccc1=O [3i-1248],0.988 ± 0.09

# Same assay, conditions: 0.1 µM; 72 h
row,Compound,cell viability
1,CC(C)(C)c1cc(NC(=O)Nc2ccc(-c3cn4c(n3)sc3cc(OCCN5CCOCC5)ccc34)cc2)no1 [quizartinib],0.00261 ± 0.00061
2,C=CCCn1cc(-c2cc(C(=O)N3CCOCC3)cc3c2ncn3C)c2cc[nH]c2c1=O [GNE-371],0.989 ± 0.05
3,Cc1cc(-c2cc(NC(=O)c3ccc(C(C)(C)C)cc3)[nH]n2)ccn1 [3i-1246],0.755 ± 0.043
4,CC(C)(C)c1ccc(C(=O)Nc2cc(-c3ccccc3)n[nH]2)cc1 [3i-1247],0.388 ± 0.12
5,Cn1cc(-c2cc(NC(=O)c3ccc(C(C)(C)C)cc3)n[nH]2)ccc1=O [3i-1248],0.912 ± 0.088

# Same assay, conditions: 0.3 µM; 72 h
row,Compound,cell viability
1,CC(C)(C)c1cc(NC(=O)Nc2ccc(-c3cn4c(n3)sc3cc(OCCN5CCOCC5)ccc34)cc2)no1 [quizartinib],0.00141 ± 0.0005
2,C=CCCn1cc(-c2cc(C(=O)N3CCOCC3)cc3c2ncn3C)c2cc[nH]c2c1=O [GNE-371],0.986 ± 0.025
3,Cc1cc(-c2cc(NC(=O)c3ccc(C(C)(C)C)cc3)[nH]n2)ccn1 [3i-1246],0.418 ± 0.062
4,CC(C)(C)c1ccc(C(=O)Nc2cc(-c3ccccc3)n[nH]2)cc1 [3i-1247],0.19 ± 0.062
5,Cn1cc(-c2cc(NC(=O)c3ccc(C(C)(C)C)cc3)n[nH]2)ccc1=O [3i-1248],0.773 ± 0.053

# Same assay, conditions: 1 µM; 72 h
row,Compound,cell viability
1,CC(C)(C)c1cc(NC(=O)Nc2ccc(-c3cn4c(n3)sc3cc(OCCN5CCOCC5)ccc34)cc2)no1 [quizartinib],0.00194 ± 0.00081
2,C=CCCn1cc(-c2cc(C(=O)N3CCOCC3)cc3c2ncn3C)c2cc[nH]c2c1=O [GNE-371],0.994 ± 0.031
3,Cc1cc(-c2cc(NC(=O)c3ccc(C(C)(C)C)cc3)[nH]n2)ccn1 [3i-1246],0.21 ± 0.031
4,CC(C)(C)c1ccc(C(=O)Nc2cc(-c3ccccc3)n[nH]2)cc1 [3i-1247],0.0317 ± 0.0089
5,Cn1cc(-c2cc(NC(=O)c3ccc(C(C)(C)C)cc3)n[nH]2)ccc1=O [3i-1248],0.459 ± 0.07

# Same assay, conditions: 3 µM; 72 h
row,Compound,cell viability
1,CC(C)(C)c1cc(NC(=O)Nc2ccc(-c3cn4c(n3)sc3cc(OCCN5CCOCC5)ccc34)cc2)no1 [quizartinib],0.000901 ± 0.00082
2,C=CCCn1cc(-c2cc(C(=O)N3CCOCC3)cc3c2ncn3C)c2cc[nH]c2c1=O [GNE-371],0.986 ± 0.056
3,Cc1cc(-c2cc(NC(=O)c3ccc(C(C)(C)C)cc3)[nH]n2)ccn1 [3i-1246],0.0386 ± 0.018
4,CC(C)(C)c1ccc(C(=O)Nc2cc(-c3ccccc3)n[nH]2)cc1 [3i-1247],0.00462 ± 0.0058
5,Cn1cc(-c2cc(NC(=O)c3ccc(C(C)(C)C)cc3)n[nH]2)ccc1=O [3i-1248],0.179 ± 0.049

# Same assay, conditions: 10 µM; 72 h
row,Compound,cell viability
1,CC(C)(C)c1cc(NC(=O)Nc2ccc(-c3cn4c(n3)sc3cc(OCCN5CCOCC5)ccc34)cc2)no1 [quizartinib],0.00066 ± 0.00036
2,C=CCCn1cc(-c2cc(C(=O)N3CCOCC3)cc3c2ncn3C)c2cc[nH]c2c1=O [GNE-371],0.95 ± 0.067
3,Cc1cc(-c2cc(NC(=O)c3ccc(C(C)(C)C)cc3)[nH]n2)ccn1 [3i-1246],0.0136 ± 0.037
4,CC(C)(C)c1ccc(C(=O)Nc2cc(-c3ccccc3)n[nH]2)cc1 [3i-1247],0.00157 ± 0.00088
5,Cn1cc(-c2cc(NC(=O)c3ccc(C(C)(C)C)cc3)n[nH]2)ccc1=O [3i-1248],0.00744 ± 0.0056

# Same assay, conditions: 30 µM; 72 h
row,Compound,cell viability
1,CC(C)(C)c1cc(NC(=O)Nc2ccc(-c3cn4c(n3)sc3cc(OCCN5CCOCC5)ccc34)cc2)no1 [quizartinib],0.000483 ± 0.00064
2,C=CCCn1cc(-c2cc(C(=O)N3CCOCC3)cc3c2ncn3C)c2cc[nH]c2c1=O [GNE-371],0.928 ± 0.091
3,Cc1cc(-c2cc(NC(=O)c3ccc(C(C)(C)C)cc3)[nH]n2)ccn1 [3i-1246],0.000242 ± 0.0027
4,CC(C)(C)c1ccc(C(=O)Nc2cc(-c3ccccc3)n[nH]2)cc1 [3i-1247],0.000514 ± 0.00038
5,Cn1cc(-c2cc(NC(=O)c3ccc(C(C)(C)C)cc3)n[nH]2)ccc1=O [3i-1248],-0.000138 ± 0.00087
